Where two headings read alike, the source gives them in different places.
What was measured:
[1] = in vivo; conditions: rat, in vivo
Description: (2) apparatus: Model WFX-1B Spectrophotometer of Atomic Absorption was produced by The Second Optical Apparatus Factory of Beijing, 83114; P-E 3030 Spectrophotometer of Atomic Absorption was produced by Perkin-Elmer Corp.,USA;DT-100 Single-Pan Balance (1/10^4) was produced by Beijing Optical Apparatus Factory; TJ-6 Centrifuge was produced by Beckman, USA; Model MVS-1 Vortex Mixer was produced by Beijing Beide Scientific Apparatus and Materials Co. Ltd.
Twelve hours after the animals had been fasted, 0.5 mL plasma was sampled by excising eyeballs. The plasma was established as the blank group. Then rats were administered agents once in an amount of 20 mL/kg body weight by pouring into the stomach. 0.5 mL plasma was sampled by taking from eyeballs 0.25,0.5,1,1.5,2,3,4,6,8,12 and 16 hours later after the administration. […] The concentration of calcium was measured by a Model WFX-1B Spectrophotometer of Atomic Absorption.

[2] = tested on: castrated male rats with osteoporosis; conditions: for serum Ca: model 1.80 ± 0.37; for serum P: model 2.03 ± 0.48; for AKP level in serum (in Bessey-Loury unit): model 96.7 ± 26.4
Protocol: Serum Ca, P and AKP were measured by a 4010 Automatic Biochemical Analyzer. Serum Ca was determined by calorimetric method using methylthymol blue. Serum P was determined by Mono-Reagent Method. Alkaline phosphatase was determined by method of disodium p-nitrophenylphosphonate (AKP) The tartaric-resistant acidic phosphatase (Tr-ACP) mineral was determined by Piedra procedure. All above reagent-box were available from the Clinical Chemicals Sub-plant of Beijing Chemical Plant.
The pure synthetic low-calcium diet and apparatus used in this test were the same as in test II.

[3] = tested on: castrated male rats with osteoporosis; conditions: for bone mineral density F50: model-control 0.235 ± 0.022; for bone mineral density F20: model-control 0.244 ± 0.025
Description: (4) Measurement of bone mineral density.

[4] = tested on: rickets-mice; test: Preventing rickets in younger mice: body weight, dry weight, ash weight and total calcium content of femur; assay type: in vivo, mice of Kunming species; conditions: for dry weight of femur: model 0.099 ± 0.014; for total calcium content: model 24.81 ± 4.36; for ash weight: model 46.62 ± 9.38
Protocol: (§1) The mice were bred for 60 days under conditions of avoiding light around-the-clock, at a temperature of 20-25° C. and a relative humility of 40-60% while the normal-control group mice were fed ordinary diet and water and were placed in non-dark room.
(§2) The low-calcium diet used in this test was the same as that in Test II but VD in the vitamin mixture was replaced by glucose.
(§3) Some weanling mice were placed in dark room and fed VD -deficient low-calcium diet and drunk de-ionized water for 60 days, thus a ricket model of baby mice was prepared. While other weanling mice were placed in non-dark room and fed ordinary diet and drunk tap water for 60 days, these mice were established as normal-control group.

[5] = tested on: rickets-mice; test: Preventing rickets in younger mice: tibia strength (three-point bending); assay type: in vivo, mice of Kunming species; conditions: for breaking force (tibia): model 1.12 ± 0.37
Protocol: as §1, §2, §3

[6] = tested on: rickets-babies; conditions: for craniomalacia, babies with symptom after the beginning of test: before test 3 (threonate), 4 (carbonate); for pillow-bald, babies with symptom after the beginning of test: before test 9 (threonate), 9 (carbonate); for night-sweat, babies with symptom after the beginning of test: before test 12 (threonate), 13 (carbonate)
Protocol: Fourty rickets-babies at the age of 3-10 months were randomly divided into 2 groups of 20 babies each. […] Test group II, namely the calcium carbonate group, were administered orally calcium carbonate twice a day in a dosage of one bag each time. Each bag of the two kind of calcium preparations contained the same amount of element calcium, namely 150 mg element calcium.
(1) Clinic symptoms mainly included the normal symptoms of rickets-babies such as night-sweat, pillow-bald, craniomalacia, etc.

[7] = dog, in vivo
[8] = tested on: castrated male rats with osteoporosis; conditions: for length of femur: model 3.26 ± 0.09; for ash weight of femur: model 187.5 ± 18.0; for calcium content of femur: model 245.1 ± 25.7; for dry weight of femur: model 360.0 ± 32.1; for wet weight of femur: model 638.3 ± 57.6
Protocol: After pulled off soft tissue, the right femur was dried for 5 hours in oven at the temperature of 120° C. until its weight kept a constant (dry weight), then the product was baked for 6 hours in muffle furnace at the temperature of 800° C. until the weight of the product kept a constant which was the ash weight, namely the total amount of inorganic salts. After part of the ash was resolved in dilute hydrochloride, the calcium content of ash was measured by the method of EDTA titration. All data was expressed as X±SD(n). The significance of differences between groups were assessed using the "T-test" method of two groups of small specimen.
(§4) In this test, the measuring methods for serum Ca, P, AKP levels, the bone mineral density, the length of femur, wet weight, dry weight, ash weight, the calcium content and the biomechanics of femur were all the same as in test II.

[9] = tested on: castrated male rats with osteoporosis; conditions: for K (calcification of bone): model-control 1.50 ± 0.26; for P (strength of femur): model-control 5.2 ± 1.1; for Y (flexibility, tenacity): model-control 8.0 ± 1.2; for S (work to break the bone): model-control 24.5 ± 7.5
Protocol: Three-point bending test was done on the fresh femur iced in refrigerator with a Model WD-1 Electron Universal Test Machine under the following conditions: a span of 2.5 cm, a 25 kg sensor (1/50), a speed of 2 mm/minute. The function of load versus flexibility was recorded by a finction recorder, wherein P represented the maximum of force at yielding point, Y was flexibility indicating the tenacity of materials. K, as the rate of slope, was a rigidity parameter of materials and was associated with the degree of calcification in bone mechanics. S stood for the work to yield or break femur.
In this test, chemicals were the saine as in test II, animals were male Wistar rats each weighing 150±10 g and were provided by Animal Center of the National Institute for the Identification of Pharmaceuticals and Biological Products, Beijing. The breeding of the rats was the same as in test II.
The male rats each weighing 150±10 g were excised of bilateral spermaries and were fed low-calcium diet and offered deionized water for 60 days, thus made a model of osteoporosis.
Seventy of the castrated male rats were divided into groups and tested in the same manner as Test II but the days of administration were 52 days during the 60 days of test.
as §4

[10] = tested on: ovariectomized rats with osteoporosis; test: Test II: bone mineral density of femur in ovariectomized rats; conditions: for bone density F50: center of femur; for bone density F20: proximal position 20%, model-control 0.256 ± 0.022
Protocol: Female 3-month-aged rats which had been excised of bilateral ovaries under sterilized condition were fed for a week until their wound was cured. Seventy healthy rats were selected and divided randomly into five groups of 14 rats. […] Group 1-5 were administered one time per day and 6 times per week and were also fed low-calcium diet and de-ionized water. The test period was 75 days. […] The bilateral femurs of rats were stripped off and stored in refrigerator. After the measurement of the bone mineral density, the left femur was stored for analysis of biomechanical characteristics.
(4) Measurement of bone mineral density. Fresh femur iced in refrigerator was measured of bone mineral content at the center (F50) and the proximal position 20% (F20) of femur by single photon absorptiometry (Model BMD400GI) with a scanning speed of 0.25 mm/s and a precision degree of 99%, the Apparatus was proofread using a standard apparatus provided by Jishuitan Hospital, Beijing. The data was processed by software used clinically. The bone mineral content was expressed by a unit of bone mineral content per square centimeter (BMC/cm^2).

[11] = 2.31 g/kg/d (300 mg calcium; Caltrate-D 0.65 g/kg/d)

O=C(O)[C@H](O)[C@@H](O)CO [calcium L-threonate]
absorption rate constant ka [1]: 6.14 h⁻¹
CL/F ([1]; po): 17.3 mL/min/kg
Vd/F ([1]; po): 6.69 L/kg
AUC ([1]; po, 200 mg/kg): 192 µg·h/mL
Cmax ([1]; po, 200 mg/kg): 27200 ng/mL
half-life ([1]; po, 200 mg/kg): 4.45 h
Tmax ([1]; po, 200 mg/kg, Tmax): 0.797 h
serum Ca ([2]; 100 mg element calcium/kg/d): 1.97 ± 0.52 mmol/L
serum P ([2]; 100 mg element calcium/kg/d): 1.87 ± 0.39 mmol/L
AKP level in serum (in Bessey-Loury unit) ([2]; 100 mg element calcium/kg/d): 88.3 ± 13.7 U/L
serum Ca ([2]; 200 mg element calcium/kg/d): 2.20 ± 0.60 mmol/L
serum P ([2]; 200 mg element calcium/kg/d): 1.78 ± 0.55 mmol/L
AKP level in serum (in Bessey-Loury unit) ([2]; 200 mg element calcium/kg/d): 59.2 ± 12.0 U/L
serum Ca ([2]; 300 mg element calcium/kg/d): 2.17 ± 0.62 mmol/L
serum P ([2]; 300 mg element calcium/kg/d): 1.48 ± 0.55 mmol/L
AKP level in serum (in Bessey-Loury unit) ([2]; 300 mg element calcium/kg/d): 56.1 ± 6.2 U/L
serum calcium effect (in words) ([2]; rat, in vivo): significantly higher than that of model group
bone mineral density F50 ([3]; 100 mg element calcium/kg/d): 0.255 ± 0.025 BMC/BW
bone mineral density F20 ([3]; 100 mg element calcium/kg/d): 0.297 ± 0.037 BMC/BW
bone mineral density F50 ([3]; 200 mg element calcium/kg/d): 0.269 ± 0.019 BMC/BW
bone mineral density F20 ([3]; 200 mg element calcium/kg/d): 0.308 ± 0.020 BMC/BW
bone mineral density F50 ([3]; 300 mg element calcium/kg/d): 0.274 ± 0.018 BMC/BW
bone mineral density F20 ([3]; 300 mg element calcium/kg/d): 0.327 ± 0.033 BMC/BW
dry weight of femur ([4]; 200 mg calcium element): 0.121 ± 0.010 g
total calcium content ([4]; 200 mg calcium element): 36.23 mg
ash weight ([4]; 200 mg calcium element): 69.44 ± 6.62 mg
dry weight of femur ([4]; 300 mg calcium element): 0.131 ± 0.013 g
total calcium content ([4]; 300 mg calcium element): 38.90 ± 13.78 mg
ash weight ([4]; 300 mg calcium element): 74.73 ± 12.31 mg
Ca deposited in femur versus calcium gluconate (in words) ([4]; P<0.05): much higher than that of calcium gluconate
dry femur weight, ash weight and total calcium content (in words) ([4]; high and low dosage): markedly higher than those of the model group and were approximate to those of the normal-control group
breaking force (tibia) ([5]; 200 mg calcium element): 1.49 ± 0.38 kg
breaking force (tibia) ([5]; 300 mg calcium element): 1.59 ± 0.27 kg
breaking force of tibia (in words) ([5]; mouse, in vivo): significantly higher than those for the model group and were comparable with those for the normal-control group
therapeutic effect on baby rickets (in words) ([6]; 300 mg element calcium): significantly superior to that of calcium carbonate
total symptom improvement ([6]; four weeks): 100%
craniomalacia, babies with symptom after the beginning of test ([6]; four weeks): 0
pillow-bald, babies with symptom after the beginning of test ([6]; four weeks): 0
night-sweat, babies with symptom after the beginning of test ([6]; four weeks): 0
total symptom improvement ([6]; two weeks): 62.5%
rickets-babies free of symptoms ([6]; two weeks of administration (concluding text)): 62%
craniomalacia, babies with symptom after the beginning of test ([6]; two weeks): 2
pillow-bald, babies with symptom after the beginning of test ([6]; two weeks): 7
night-sweat, babies with symptom after the beginning of test ([6]; two weeks): 0
kinetic change of serum levels and pharmaceutical dynamic parameters (in words) [7]: consistent with those of rats
length of femur ([8]; 0.76 g/kg/d): 3.34 ± 0.05 cm
ash weight of femur ([8]; 0.76 g/kg/d): 233.1 ± 19.76 mg
calcium content of femur ([8]; 0.76 g/kg/d): 267.0
dry weight of femur ([8]; 0.76 g/kg/d): 416.7 ± 29.7 g
wet weight of femur ([8]; 0.76 g/kg/d): 688.4 ± 47.4 g
length of femur ([8]; 1.54 g/kg/d): 3.34 ± 0.08 cm
ash weight of femur ([8]; 1.54 g/kg/d): 269.66 ± 23.4 mg
calcium content of femur ([8]; 1.54 g/kg/d): 268.2
dry weight of femur ([8]; 1.54 g/kg/d): 458.1 ± 39.1 g
wet weight of femur ([8]; 1.54 g/kg/d): 720.2 ± 69.7 g
length of femur [8, 11]: 3.35 ± 0.09 cm
ash weight of femur [8, 11]: 278.2 ± 31.8 mg
calcium content of femur [8, 11]: 266.7
dry weight of femur [8, 11]: 473.4 ± 57.2 g
wet weight of femur [8, 11]: 747.3 ± 95.2 g
femur length, weights and calcium content (in words) ([8]; rat, in vivo): markedly higher femur length, wet weight, dry weight, ash weight and calcium content than those of the model group rats
K (calcification of bone) ([9]; 100 mg element calcium/kg/d): 2.05 ± 0.25
P (strength of femur) ([9]; 100 mg element calcium/kg/d): 7.6 ± 1.1
Y (flexibility, tenacity) ([9]; 100 mg element calcium/kg/d): 7.3 ± 1.6
S (work to break the bone) ([9]; 100 mg element calcium/kg/d): 29.7
K (calcification of bone) ([9]; 200 mg element calcium/kg/d): 2.27 ± 0.42
P (strength of femur) ([9]; 200 mg element calcium/kg/d): 8.7 ± 1.2
Y (flexibility, tenacity) ([9]; 200 mg element calcium/kg/d): 6.6 ± 1.1
S (work to break the bone) ([9]; 200 mg element calcium/kg/d): 28.3
K (calcification of bone) ([9]; 300 mg element calcium/kg/d): 2.52 ± 0.22
P (strength of femur) ([9]; 300 mg element calcium/kg/d): 9.3 ± 0.9
Y (flexibility, tenacity) ([9]; 300 mg element calcium/kg/d): 6.3 ± 1.0
S (work to break the bone) ([9]; 300 mg element calcium/kg/d): 28.7 ± 7.8
P,K,S values (in words) ([9]; rat, in vivo): markedly increased in contrast to those of the model group rats
bone density F50 ([10]; 100 mg element calcium/kg/d): 0.289 ± 0.021 BMC/BW
bone density F20 ([10]; 100 mg element calcium/kg/d): 0.288 ± 0.021 BMC/BW
bone density F50 ([10]; 200 mg element calcium/kg/d): 0.282 ± 0.020 BMC/BW
bone density F20 ([10]; 200 mg element calcium/kg/d): 0.315 ± 0.032 BMC/BW
bone density F20 ([10]; 300 mg element calcium/kg/d): 0.314 ± 0.020 BMC/BW
bone density effect (in words) ([10]; versus model-control group): markedly higher than that of model-control group rats
